pKi: −log10 of the molar value. Several values for one entry are separate records, joined by “and”; a condition that tells them apart may be missing. Equal values may be shown once. Where a name gives a salt, the structure may show the parent alone.
Tests used:
[1] = molecular target: T1, recombinant human beta tryptase (Homo sapiens, UniProt Q15661); assay: beta-Tryptase inhibition, chromogenic enzyme assay (S2366 substrate); assay type: biochemical; conditions: Ki calculated from IC50: Ki=IC50/(1+[Substrate]/Km), 0.5 mM S2366, room temperature
T1 construct: host or cells: yeast cells
T1 sequence (Q15661 31-275): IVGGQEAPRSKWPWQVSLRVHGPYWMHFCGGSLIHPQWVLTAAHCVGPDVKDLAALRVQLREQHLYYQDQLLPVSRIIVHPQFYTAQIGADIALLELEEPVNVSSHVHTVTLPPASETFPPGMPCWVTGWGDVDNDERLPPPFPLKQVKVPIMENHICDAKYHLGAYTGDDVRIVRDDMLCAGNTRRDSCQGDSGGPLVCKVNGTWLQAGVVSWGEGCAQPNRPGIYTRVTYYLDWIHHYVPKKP
Excerpt: Inhibition of this catalytic activity may be measured by the in vitro enzyme assay and the cellular assay.
Tryptase inhibition activity is confirmed using either isolated human lung tryptase or recombinant human beta tryptase expressed in yeast cells. Essentially equivalent results are obtained using isolated native enzyme or the expressed enzyme. The assay procedure employs a 96 well microplate (Costar 3590) using L-pyroglutamyl-L-prolyl-L-arginine-para-nitroanilide (S2366: Quadratech) as substrate (essentially as described by McEuen et. al. Biochem Pharm, 1996, 52, pages 331-340). Assays are performed at room temperature using 0.5 mM substrate (2×Km) and the microplate is read on a microplate reader (Beckman Biomek Plate reader) at 405 nm wavelength.
S2366 (Stock solutions of 2.5 mM).
Purified recombinant beta Tryptase Stocks of 310 μg/mL.
• Add 60 μL of diluted substrate (final concentration of 500 μM in assay buffer) to each well • Add compound in duplicates, final concentration of 20 μM, volume 20 μL • Add enzyme at a final concentration of 50 ng/mL in a volume of 20 μL • Total volume for each well is 100 μL • Agitate briefly to mix and incubate at room temp in the dark for 30 minutes • Read absorbencies at […] Each plate has the following controls: • Totals: 60 μL of substrate, 20 μL of buffer (with 0.2% final concentration of DMSO), 20 μL of enzyme • Non-specific: 60 μL of substrate, 40 μL of buffer (with 0.2% DMSO) • Totals: 60 μL of substrate, 20 μL of buffer (No DMSO), 20 μL of enzyme • Non-specific: 60 μL of substrate, 40 μL of buffer (No DMSO)
The protocol is essentially the same as above except that the compound is added in duplicates at the following final concentrations: 0.01, 0.03, 0.1, 0.3, 1, 3, 10 μM (All dilutions carried out manually). For every assay, whether single point or IC50 determination, a standard compound is used to derive IC50 for comparison. From the IC50 value, the Ki can be calculated using the following formula: Ki=IC50/(1+[Substrate]/Km).

COCCn1cc(C(=O)N2CCC(c3cc(CN)ccc3F)CC2)c2nccc(OC)c21 [Example 15, [4-(5-Aminomethyl-2-fluoro-phenyl)-piperidin-1-yl]-[7-methoxy-1-(2-methoxy-ethyl)-1H-pyrrolo[3,2-b]pyridin-3-yl]-methanone dihydrochloride]
pKi [1]: 8.00

COCCn1cc(C(=O)N2CCC(c3cc(CN)ccc3F)CC2)c2ccnc(Cl)c21 (as salt: hydrochloride) [Example 13, [4-(5-Aminomethyl-2-fluoro-phenyl)-piperidin-1-yl]-[7-chloro-1-(2-methoxy-ethyl)-1H-pyrrolo[2,3-c]pyridin-3-yl]-methanone dihydrochloride]
melting point: 163 to 167 °C

COCCn1c(C(=O)N2CCC(c3cc(CN)ccc3F)CC2)cc2cnccc21 [Example 4, [4-(5-Aminomethyl-2-fluoro-phenyl)-piperidin-1-yl]-[1-(2-methoxy-ethyl)-1H-pyrrolo[3,2-c]pyridin-2-yl]-methanone hydrochloride]
pKi [1]: 5.96

NCc1ccc(F)c(C2CCN(C(=O)c3c[nH]c4ncccc34)CC2)c1 [Example 19, [4-(5-Aminomethyl-2-fluoro-phenyl)-piperidin-1-yl]-(1H-pyrrolo[2,3-b]pyridin-3-yl)-methanone dihydrochloride]
pKi [1]: 6.69

COCCn1cc(C(=O)N2CCC(c3cc(CN)ccc3F)CC2)c2nccc(C)c21 [Example 12, [4-(5-Aminomethyl-2-fluoro-phenyl)-piperidin-1-yl]-[1-(2-methoxy-ethyl)-7-methyl-1H-pyrrolo[3,2-b]pyridin-3-yl]-methanone dihydrochloride]
pKi [1]: 7.64 and 7.89

NCc1ccc(F)c(C2CCN(C(=O)c3c[nH]c4cnccc34)CC2)c1 [Example 5, [4-(5-Aminomethyl-2-fluoro-phenyl)-piperidin-1-yl]-(1H-pyrrolo[2,3-c]pyridin-3-yl)-methanone dihydrochloride]
pKi [1]: 6.66

COCCn1c(C(=O)N2CCC(c3cccc(CN)c3)CC2)cc2cccnc21 [Example 3, [4-(3-Aminomethyl-phenyl)-piperidin-1-yl]-[1-(2-methoxy-ethyl)-1H-pyrrolo[2,3-b]pyridin-2-yl]-methanone dihydrohydrochloride, dihydrochloride]
pKi [1]: 6.04

COCCn1cc(C(=O)N2CCC(c3cc(CN)ccc3F)CC2)c2ccnc(Cl)c21 [Example 13, [4-(5-Aminomethyl-2-fluoro-phenyl)-piperidin-1-yl]-[7-chloro-1-(2-methoxy-ethyl)-1H-pyrrolo[2,3-c]pyridin-3-yl]-methanone dihydrochloride]
pKi [1]: 7.60

NCc1ccc(F)c(C2CCN(C(=O)c3cn(CCN4CCCCC4)c4cccnc34)CC2)c1 [Example 17, [4-(5-Aminomethyl-2-fluoro-phenyl)-piperidin-1-yl]-[1-(2-piperidin-1-yl-ethyl)-1H-pyrrolo[3,2-b]pyridin-3-yl]-methanone trihydrochloride]
pKi [1]: 6.54

NCc1ccc(F)c(C2CCN(C(=O)c3cc4cccnc4[nH]3)CC2)c1 [Example 1, [4-(5-Aminomethyl-2-fluoro-phenyl)-piperidin-1-yl]-(1H-pyrrolo[2,3-b]pyridin-2-yl)-methanone dihydrochloride]
pKi [1]: 6.66

NCc1ccc(F)c(C2CCN(C(=O)c3cn(CCN4CCCC4)c4cccnc34)CC2)c1 [Example 18, [4-(5-Aminomethyl-2-fluoro-phenyl)-piperidin-1-yl]-[1-(2-pyrrolidin-1-yl-ethyl)-1H-pyrrolo[3,2-b]pyridin-3-yl]-methanone trihydrochloride]
pKi [1]: 6.56

COCCn1cc(C(=O)N2CCC(c3cc(CN)ccc3F)CC2)c2ccncc21 [Example 9, [4-(5-Aminomethyl-2-fluoro-phenyl)-piperidin-1-yl]-[1-(2-methoxy-ethyl)-1H-pyrrolo[2,3-c]pyridin-3-yl]-methanone dihydrochloride]
pKi [1]: 7.46

NCc1ccc(F)c(C2CCN(C(=O)c3cn(CCc4ccccc4)c4cccnc34)CC2)c1 [Example 16, [4-(5-Aminomethyl-2-fluoro-phenyl)-piperidin-1-yl]-(1-phenethyl-1H-pyrrolo[3,2-b]pyridin-3-yl)-methanone dihydrochloride]
pKi [1]: 8.54

COCCn1cc(C(=O)N2CCC(c3cc(CN)ccc3F)CC2)c2cnccc21 [Example 10, [4-(5-Aminomethyl-2-fluoro-phenyl)-piperidin-1-yl]-[1-(2-methoxy-ethyl)-1H-pyrrolo[3,2-c]pyridin-3-yl]-methanone dihydrochloride]
pKi [1]: 6.74

COCCn1cc(C(=O)N2CCC(c3cc(CN)ccc3F)CC2)c2cccnc21 [Example 20, [4-(5-Aminomethyl-2-fluoro-phenyl)-piperidin-1-yl]-[1-(2-methoxy-ethyl)-1H-pyrrolo[2,3-b]pyridin-3-yl]-methanone dihydrochloride]
pKi [1]: 7.04

COCCOc1nccc2c(C(=O)N3CCC(c4cc(CN)ccc4F)CC3)cn(CCOC)c12 [Example 11, [4-(5-Aminomethyl-2-fluoro-phenyl)-piperidin-1-yl]-[7-(2-methoxy-ethoxy)-1-(2-methoxy-ethyl)-1H-pyrrolo[2,3-c]pyridin-3-yl]-methanone dihydrochloride]
pKi [1]: 6.78

COCCn1cc(C(=O)N2CCC(c3cc(CN)ccc3F)CC2)c2ccnc(C)c21 [Example 14, [4-(5-Aminomethyl-2-fluoro-phenyl)-piperidin-1-yl]-[1-(2-methoxy-ethyl)-7-methyl-1H-pyrrolo[2,3-c]pyridin-3-yl]-methanone]
pKi [1]: 7.60

COCCn1cc(C(=O)N2CCC(c3cccc(CN)c3)CC2)c2ccncc21 [Example 8, [4-(3-Aminomethyl-phenyl)-piperidin-1-yl]-[1-(2-methoxy-ethyl)-1H-pyrrolo[2,3-c]pyridin-3-yl]-methanone dihydrochloride]
pKi [1]: 7.00

COCCn1c(C(=O)N2CCC(c3cc(CN)ccc3F)CC2)cc2cccnc21 [Example 2, [4-(5-Aminomethyl-2-fluoro-phenyl)-piperidin-1-yl]-[1-(2-methoxy-ethyl)-1H-pyrrolo[2,3-b]pyridin-2-yl]-methanone dihydrochloride]
pKi [1]: 6.27

Reference: patent US20120245199A1, “[4 [4-(AMINOMETHYL-2-FLUORO-PHENYL)-PIPERIDIN-1-YL]-(1H-PYRROLO-PYRIDIN-YL)-METHANONES AND SYNTHESIS THEREOF” (SANOFI, priority 2009, published 2012)
